Legend:
N-type calcium channel = target: T1, N-type calcium channel (Homo sapiens, UniProt Q00975); test: Antagonistic activity on N-type calcium channel (fluorescence dye method, KCl-stimulated intracellular calcium change in IMR-32 cells with 1 μM Nifedipine); format: cell-based; conditions: 10 μM test compound, 60 mM KCl stimulation, read-out: Antagonistic activity on N-type calcium channels at 10 μM inhibition rate (%)
T1 construct: host or cells: IMR-32 human neuroblastoma cells, differentiated with dibutyl cAMP and 5-bromodeoxyuridine
T1 sequence (Q00975 whole entry): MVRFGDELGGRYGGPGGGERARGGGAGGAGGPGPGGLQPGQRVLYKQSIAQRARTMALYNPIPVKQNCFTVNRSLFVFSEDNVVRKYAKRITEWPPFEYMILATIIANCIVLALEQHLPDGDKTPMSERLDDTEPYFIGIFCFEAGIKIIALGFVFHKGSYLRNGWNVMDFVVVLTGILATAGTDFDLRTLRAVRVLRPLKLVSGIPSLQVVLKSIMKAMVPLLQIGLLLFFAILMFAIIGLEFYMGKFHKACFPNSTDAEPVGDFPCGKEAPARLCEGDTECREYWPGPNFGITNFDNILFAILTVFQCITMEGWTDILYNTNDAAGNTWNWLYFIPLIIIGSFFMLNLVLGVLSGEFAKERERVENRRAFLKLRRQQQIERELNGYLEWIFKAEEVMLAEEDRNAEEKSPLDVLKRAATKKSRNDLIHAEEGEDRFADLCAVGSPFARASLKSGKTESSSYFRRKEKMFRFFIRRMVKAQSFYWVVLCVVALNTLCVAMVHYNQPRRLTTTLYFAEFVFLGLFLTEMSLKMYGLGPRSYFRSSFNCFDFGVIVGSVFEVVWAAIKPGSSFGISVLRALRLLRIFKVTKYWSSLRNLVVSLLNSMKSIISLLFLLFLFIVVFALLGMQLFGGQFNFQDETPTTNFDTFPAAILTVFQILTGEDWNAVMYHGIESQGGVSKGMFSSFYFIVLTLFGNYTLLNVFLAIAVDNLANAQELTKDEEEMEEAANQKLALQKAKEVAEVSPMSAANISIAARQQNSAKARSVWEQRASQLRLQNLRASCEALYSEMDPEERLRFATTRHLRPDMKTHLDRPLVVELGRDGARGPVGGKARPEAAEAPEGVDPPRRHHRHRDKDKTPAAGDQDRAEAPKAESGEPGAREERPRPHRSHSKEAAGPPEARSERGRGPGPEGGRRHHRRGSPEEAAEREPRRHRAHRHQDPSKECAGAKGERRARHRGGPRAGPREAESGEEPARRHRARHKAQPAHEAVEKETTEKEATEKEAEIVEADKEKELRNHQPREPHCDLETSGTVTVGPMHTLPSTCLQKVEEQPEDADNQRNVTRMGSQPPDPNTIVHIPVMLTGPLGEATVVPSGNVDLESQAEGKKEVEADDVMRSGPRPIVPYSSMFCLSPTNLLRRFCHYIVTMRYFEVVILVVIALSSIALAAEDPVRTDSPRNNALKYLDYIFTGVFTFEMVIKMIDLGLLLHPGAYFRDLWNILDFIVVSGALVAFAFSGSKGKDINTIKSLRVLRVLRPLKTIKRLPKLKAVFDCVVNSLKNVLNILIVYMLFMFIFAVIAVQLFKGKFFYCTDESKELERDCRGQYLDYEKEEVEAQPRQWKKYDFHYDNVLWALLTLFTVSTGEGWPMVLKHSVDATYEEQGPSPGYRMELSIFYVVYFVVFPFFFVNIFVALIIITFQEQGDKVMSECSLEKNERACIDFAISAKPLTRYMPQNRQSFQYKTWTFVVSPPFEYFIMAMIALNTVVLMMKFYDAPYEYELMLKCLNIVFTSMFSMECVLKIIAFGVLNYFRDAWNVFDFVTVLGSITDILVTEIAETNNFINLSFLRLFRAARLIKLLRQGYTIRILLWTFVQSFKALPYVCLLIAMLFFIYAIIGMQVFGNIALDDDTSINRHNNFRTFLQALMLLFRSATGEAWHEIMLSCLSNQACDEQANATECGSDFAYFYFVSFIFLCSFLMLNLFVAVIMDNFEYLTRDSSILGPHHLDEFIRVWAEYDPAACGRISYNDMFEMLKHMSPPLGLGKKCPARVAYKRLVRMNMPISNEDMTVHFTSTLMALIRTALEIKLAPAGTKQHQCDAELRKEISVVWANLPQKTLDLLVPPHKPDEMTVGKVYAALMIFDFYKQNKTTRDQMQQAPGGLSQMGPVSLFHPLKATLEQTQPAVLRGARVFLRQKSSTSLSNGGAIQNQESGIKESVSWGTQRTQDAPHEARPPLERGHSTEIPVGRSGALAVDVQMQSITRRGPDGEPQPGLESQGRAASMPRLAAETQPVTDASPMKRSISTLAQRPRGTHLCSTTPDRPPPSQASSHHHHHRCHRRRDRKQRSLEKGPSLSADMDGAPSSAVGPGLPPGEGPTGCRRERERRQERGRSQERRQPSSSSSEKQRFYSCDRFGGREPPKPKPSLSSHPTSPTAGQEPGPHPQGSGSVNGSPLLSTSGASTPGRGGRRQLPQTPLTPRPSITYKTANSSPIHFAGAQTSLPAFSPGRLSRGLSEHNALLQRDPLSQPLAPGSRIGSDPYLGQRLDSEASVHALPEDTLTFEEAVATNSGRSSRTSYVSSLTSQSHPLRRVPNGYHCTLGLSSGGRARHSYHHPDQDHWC
T1 sequence (P54284 whole entry partner): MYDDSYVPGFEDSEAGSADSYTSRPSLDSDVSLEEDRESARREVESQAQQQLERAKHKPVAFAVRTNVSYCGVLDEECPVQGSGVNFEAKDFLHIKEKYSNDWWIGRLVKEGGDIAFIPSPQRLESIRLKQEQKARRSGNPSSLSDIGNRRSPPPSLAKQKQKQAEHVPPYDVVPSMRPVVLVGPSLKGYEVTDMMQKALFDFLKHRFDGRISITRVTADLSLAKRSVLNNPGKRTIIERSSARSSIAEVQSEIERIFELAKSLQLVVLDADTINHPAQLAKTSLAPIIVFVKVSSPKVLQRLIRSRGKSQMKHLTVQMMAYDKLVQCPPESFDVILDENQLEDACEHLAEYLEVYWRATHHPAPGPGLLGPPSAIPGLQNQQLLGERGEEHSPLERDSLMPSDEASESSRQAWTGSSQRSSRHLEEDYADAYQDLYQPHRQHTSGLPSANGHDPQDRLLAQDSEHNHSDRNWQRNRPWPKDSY
T1 sequence (P54289 25-956 partner limits assumed): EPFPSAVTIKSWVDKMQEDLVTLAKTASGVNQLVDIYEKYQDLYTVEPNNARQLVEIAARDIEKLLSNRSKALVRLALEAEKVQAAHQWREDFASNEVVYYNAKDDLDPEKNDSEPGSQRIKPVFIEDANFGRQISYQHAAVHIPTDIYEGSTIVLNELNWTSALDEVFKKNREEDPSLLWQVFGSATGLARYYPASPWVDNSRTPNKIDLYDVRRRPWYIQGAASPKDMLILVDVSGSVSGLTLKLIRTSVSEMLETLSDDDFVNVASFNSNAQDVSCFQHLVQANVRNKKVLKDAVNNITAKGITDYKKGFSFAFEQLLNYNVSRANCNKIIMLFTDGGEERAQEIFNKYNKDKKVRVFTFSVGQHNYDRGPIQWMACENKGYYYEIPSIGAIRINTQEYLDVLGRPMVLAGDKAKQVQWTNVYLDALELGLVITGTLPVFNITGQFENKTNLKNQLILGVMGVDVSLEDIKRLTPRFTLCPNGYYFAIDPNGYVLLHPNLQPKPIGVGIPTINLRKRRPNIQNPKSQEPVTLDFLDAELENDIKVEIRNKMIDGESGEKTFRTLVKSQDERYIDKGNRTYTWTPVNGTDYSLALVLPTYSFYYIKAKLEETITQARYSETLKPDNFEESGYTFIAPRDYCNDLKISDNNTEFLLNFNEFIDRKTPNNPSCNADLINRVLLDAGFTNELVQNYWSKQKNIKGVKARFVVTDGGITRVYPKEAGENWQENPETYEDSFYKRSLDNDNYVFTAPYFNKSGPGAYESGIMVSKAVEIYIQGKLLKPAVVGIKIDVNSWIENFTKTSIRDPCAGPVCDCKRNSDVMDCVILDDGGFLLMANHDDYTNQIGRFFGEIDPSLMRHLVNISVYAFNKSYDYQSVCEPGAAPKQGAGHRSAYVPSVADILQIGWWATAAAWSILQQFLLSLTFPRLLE
T1 sequence (P54289 957-1103 partner limits assumed): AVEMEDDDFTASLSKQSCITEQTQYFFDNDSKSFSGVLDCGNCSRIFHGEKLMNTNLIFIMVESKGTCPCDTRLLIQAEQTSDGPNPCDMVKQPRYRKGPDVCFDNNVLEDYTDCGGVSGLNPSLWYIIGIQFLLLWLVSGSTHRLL
Description: Human neuroblastoma cells IMR-32 were obtained from ATCC (American Type Culture Collection). The medium used was a Phenol Red-free Eagle minimum essential medium containing earle's salts (GIBCO) supplemented with 2 mM of L-glutamine (GIBCO), 1 mM of sodium pyruvate (pH 6.5) (GIBCO), antibiotic/antimycotic mixture (GIBCO) and 10% fetal calf serum (Cell Culture Technologies). Three ml of 1×10^5 cells/ml IMR-32 cells were spread on the glass bottom of a dish (Iwaki Glsss Co., Ltd.) having a diameter of 35 mm which had been treated with poly-L-lysin (SIGMA) and collagen (COLLAGEN VITROGEN 100; Collagen Co.). After the culture for 1 day, 1 mM (final concentration) of dibutyl cAMP and 2.5 μM (final concentration) of 5-bromodeoxyuridine (SIGMA) were added. After the culture for additional 10 to 14 days, the cells were subjected to the activity determination.
The medium for IMR-32 cells thus prepared was replaced with 1 ml of Phenol Red-free Eale minimum essential medium (GIBCO) containing 2.5 μM fura-2/AM (Dojin Kagaku, Co.) and earle's salts supplement, and the incubation was conducted at 37° C. for 30 minutes. Then the medium was replaced with a recording medium (20 mM of HEPES-KOH, 115 mM of NaCl, 5.4 mM of KCl, 0.8 mM of MgCl2, 1.8 mM of CaCl2 and 13.8 mM of D-glucose). Antagonistic activity on N-type calcium channel was determined and analyzed using a fluorescence microscope (Nikon Corporation) and an image analysis device ARGUS 50 (Hamamatsu Photonics). In particular, a recording medium (20 mM of HEPES-KOH, 115 mM of NaCl, 5.4 mM of KCl, 0.8 mM of MgCl2, 1.8 mM of CaCl2 and 13.8 mM of D-glucose) containing 1 μM of Nifedipine was given to the cells by reflux by a Y-tube method for 2 minutes. Then a stimulating agent containing 60 mM of potassium chloride was rapidly given by the Y-tube method. The calcium concentration change in the cells in this step was shown as the N-type calcium channel activity. Then stimulating agents containing 60 mM of potassium chloride and 0.1, 1 or 10 μM of the test compound were successively and rapidly given to the cells by the Y-tube method to determine the change in the intracellular calcium concentration. The antagonistic activity on N-type calcium channel was calculated from the inhibition rate (%) at a concentration of 10 μM.

[1] = system: Sprague-Dawley (SD) rats, formalin-induced flinching; test: Analgesic effects in the formalin test; format: in vivo, rat
Description: Four test groups each composed of 7 male Sprague-Dawley: SD rats (9 weeks old) were used for the experiment. In the control group, 0.5% tragacanth solution was given to the rats. In other test groups, 0.3, 3 or 30 mg/kg of the compound obtained in Example 11 (compound A) was given to them. Compound A was used in the form of a suspension thereof in 0.5% tragacanth solution.
Five ml/kg of 0.5% tragacanth solution or compound A was orally administered to the rats. Three hours after, the rats were tranquilized with halothane, and 2.5% formalin solution (100 μl) was injected subcutaneously to dorsal surface of the left hindpaw. Immediately thereafter, the rats were awaken from the anesthesia. […] The number of times of retracting action, i.e., flinching action of the hindpaw in which formalin had been injected, was counted for 1 minute at an interval of one minute until 5 minutes after the formalin injection, and for 1 minute at an interval of 5 minutes from 10 to 60 minutes after the injection. As reported in a literature (J. Pharmacol. Exp. Ther. 263: 136-146, 1992), the pain reaction by the stimulation with formalin appeared in two phases. The total number of times of the flinching action observed 10 to 60 minutes after the formalin injection (the second phase) was taken as the index of the pain action.
The experiment was conducted in the same manner as that in above Test Example 3 except for the followings.
Five test groups each composed of 6 male Sprague-Dawley (SD) rats (9 weeks old) were used for the experiment. In the control group, polyethylene glycol 400 was given to the rats. In the other test groups, 3, 30, 100 or 300 mg/kg of the compound obtained in Example 71 (compound B) was given to them. Compound B was used in the form of a solution thereof in polyethylene glycol 400 (PEG).
Three ml/kg of PEG or compound B was orally administered to the rats.

inhibition at 10 µM (N-type calcium channel) [%]	Compound	inhibiting ratio of flinches (second phase, 10 to 60 min) based on control group ([1]; 0.3 mg/kg oral, suspension in 0.5% tragacanth, 3 hours before formalin) [%]	inhibiting ratio of flinches (second phase, 10 to 60 min) based on control group ([1]; 3 mg/kg oral, suspension in 0.5% tragacanth, 3 hours before formalin) [%]	inhibiting ratio of flinches (second phase, 10 to 60 min) based on control group ([1]; 30 mg/kg oral, suspension in 0.5% tragacanth, 3 hours before formalin) [%]	inhibiting ratio of flinches (second phase, 10 to 60 min) based on control group ([1]; 3 mg/kg oral, solution in polyethylene glycol 400) [%]	inhibiting ratio of flinches (second phase, 10 to 60 min) based on control group ([1]; 30 mg/kg oral, solution in polyethylene glycol 400) [%]	inhibiting ratio of flinches (second phase, 10 to 60 min) based on control group ([1]; 100 mg/kg oral, solution in polyethylene glycol 400) [%]	inhibiting ratio of flinches (second phase, 10 to 60 min) based on control group ([1]; 300 mg/kg oral, solution in polyethylene glycol 400) [%]
77	CC(C)(C)C(=O)NCCC(=O)N1CCC(=C2c3ccccc3C=Cc3ccccc32)CC1 [Example 11, N-{3-[4-(5H-dibenzo[a,d][7]annulen-5-ylidene)-1-piperidinyl]-3-oxopropyl}-2,2-dimethylpropanamide]	10	42	37	–	–	–	–
74	CC(C)(C)C(=O)N[C@H](CO)CCC(=O)N1CCC(=C2c3ccccc3C=Cc3ccccc32)CC1 [Example 71, (S)-N-[4-[4-(5H-dibenzo[a,d][7]annulen-5-ylidene)-1-piperidinyl]-1-(hydroxylmethyl)-4-oxobutyl]-2.2-dimethylpropanamide]	–	–	–	11	33	53	59
